Reference: PubChem BioAssay AID2060600 (Molecular Pharmacology Branch, DTP, NCI, 2025)

Tested on: 996289-038-R-J1-PDC complex spheroid viability
Assay: Anticancer human tumor 996289-038-R-J1-PDC patient-derived colon adenocarcinoma cell line growth inhibition [CLK]
Settings: for IC50: curve of first compound; for viability, T/C: stronger effect = lower value
Procedure, shortened: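 Patient-derived tumor cells grown as complex spheroids with HUVEC endothelial cells and mesenchymal stem cells, treated with drug combinations. Concentrations descend in half-log steps from near clinical Cmax, or from 10 microM if Cmax unknown.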
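Further: spheroids exposed to the agents for 7 days before readout.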

## COc1ccc([C@@H](O)c2cc(-c3ncnc4cc(N5CCOCC5)ccc34)c(F)cc2Cl)nn1 + CN1CCN(c2cc(C(=O)Nc3cc4cc(-c5cnn(C)c5)ccc4cn3)ccn2)CC1
Second compound 0.0316 µM
  IC50: > 10 µM
Second compound 0.1 µM
  IC50: 6.69 µM
Second compound 0.316 µM
  IC50: 3.19 µM
Second compound 1 µM
  IC50: < 0.0316 µM
Second compound 3.16 µM
  IC50: < 0.0316 µM
Second compound 10 µM
  IC50: < 0.0316 µM
Second compound 0.0316 µM, first compound 0.0316 µM
  viability, T/C: 93.2%
Second compound 0.0316 µM, first compound 0.1 µM
  viability, T/C: 94.8%
Second compound 0.0316 µM, first compound 0.316 µM
  viability, T/C: 91.7%
Second compound 0.0316 µM, first compound 1 µM
  viability, T/C: 85.7%
Second compound 0.0316 µM, first compound 3.16 µM
  viability, T/C: 76.6%
Second compound 0.0316 µM, first compound 10 µM
  viability, T/C: 50.2%
Second compound 0.1 µM, first compound 0.0316 µM
  viability, T/C: 85.3%
Second compound 0.1 µM, first compound 0.1 µM
  viability, T/C: 95.1%
Second compound 0.1 µM, first compound 0.316 µM
  viability, T/C: 87.8%
Second compound 0.1 µM, first compound 1 µM
  viability, T/C: 79.8%
Second compound 0.1 µM, first compound 3.16 µM
  viability, T/C: 67.7%
Second compound 0.1 µM, first compound 10 µM
  viability, T/C: 40.8%
Second compound 0.316 µM, first compound 0.0316 µM
  viability, T/C: 61.1%
Second compound 0.316 µM, first compound 0.1 µM
  viability, T/C: 64.8%
Second compound 0.316 µM, first compound 0.316 µM
  viability, T/C: 61.9%
Second compound 0.316 µM, first compound 1 µM
  viability, T/C: 59.8%
Second compound 0.316 µM, first compound 3.16 µM
  viability, T/C: 49.8%
Second compound 0.316 µM, first compound 10 µM
  viability, T/C: 27.1%
Second compound 1 µM, first compound 0.0316 µM
  viability, T/C: 3.25%
Second compound 1 µM, first compound 0.1 µM
  viability, T/C: 3.83%
Second compound 1 µM, first compound 0.316 µM
  viability, T/C: 3.78%
Second compound 1 µM, first compound 1 µM
  viability, T/C: 4.19%
Second compound 1 µM, first compound 3.16 µM
  viability, T/C: 3.66%
Second compound 1 µM, first compound 10 µM
  viability, T/C: 3.61%
Second compound 3.16 µM, first compound 0.0316 µM
  viability, T/C: 1.19%
Second compound 3.16 µM, first compound 0.1 µM
  viability, T/C: 0.85%
Second compound 3.16 µM, first compound 0.316 µM
  viability, T/C: 1.09%
Second compound 3.16 µM, first compound 1 µM
  viability, T/C: 1.26%
Second compound 3.16 µM, first compound 3.16 µM
  viability, T/C: 2.9%
Second compound 3.16 µM, first compound 10 µM
  viability, T/C: 2.02%
Second compound 10 µM, first compound 0.0316 µM
  viability, T/C: 0.92%
Second compound 10 µM, first compound 0.1 µM
  viability, T/C: 0.41%
Second compound 10 µM, first compound 0.316 µM
  viability, T/C: 1.74%
Second compound 10 µM, first compound 1 µM
  viability, T/C: 0.52%
Second compound 10 µM, first compound 3.16 µM
  viability, T/C: 0.52%
Second compound 10 µM, first compound 10 µM
  viability, T/C: 0.65%
